Target: T1, horseradish peroxidase (HRP) (Armoracia rusticana, UniProt P00433)
T1 construct: gene PRXC1A; free or encapsulated in HOF-PTBA
T1 sequence (P00433 31-338): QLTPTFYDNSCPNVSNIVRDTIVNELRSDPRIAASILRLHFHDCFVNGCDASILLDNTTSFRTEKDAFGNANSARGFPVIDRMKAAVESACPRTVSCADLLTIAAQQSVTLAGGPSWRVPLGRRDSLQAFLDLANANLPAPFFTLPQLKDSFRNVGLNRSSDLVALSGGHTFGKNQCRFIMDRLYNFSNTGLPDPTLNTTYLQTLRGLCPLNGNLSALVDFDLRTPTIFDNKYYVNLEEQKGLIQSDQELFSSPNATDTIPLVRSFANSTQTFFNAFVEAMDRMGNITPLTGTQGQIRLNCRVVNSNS
Assay: GOx-HRP cascade, UV-vis of oxidised TMB
Assay type: biochemical
Settings: co-substrate H2O2 made by GOx from glucose; free GOx&HRP mixture and GOx&HRP@HOF-PTBA both tested

Cc1cc(-c2cc(C)c(N)c(C)c2)cc(C)c1N [TMB]
GOx-HRP cascade, UV-vis of oxidised TMB: H2O2 subsequently acting as a substrate for HRP to catalyze the oxidation of TMB
